Drawing on patent US20220306617A1, “SUBSTITUTED 1,3-PHENYL HETEROARYL DERIVATIVES AND THEIR USE IN THE TREATMENT OF DISEASE” (NOVARTIS AG, priority 2019, published 2022), this text covers EC50 and Emax for 10 compounds.

This assay has as its target T1, abc isoform of human TMEM16A channel expressed in CHO cells (Homo sapiens, UniProt Q5XXA6, DEL476-501).
T1 construct: expressed in transfected cells; host or cells: CHO cells, doxycycline-inducible expression under Blasticidin/Zeocin selection
T1 sequence (Q5XXA6 with tags, fused parts or gaps isoform Q5XXA6-5 DEL539-564): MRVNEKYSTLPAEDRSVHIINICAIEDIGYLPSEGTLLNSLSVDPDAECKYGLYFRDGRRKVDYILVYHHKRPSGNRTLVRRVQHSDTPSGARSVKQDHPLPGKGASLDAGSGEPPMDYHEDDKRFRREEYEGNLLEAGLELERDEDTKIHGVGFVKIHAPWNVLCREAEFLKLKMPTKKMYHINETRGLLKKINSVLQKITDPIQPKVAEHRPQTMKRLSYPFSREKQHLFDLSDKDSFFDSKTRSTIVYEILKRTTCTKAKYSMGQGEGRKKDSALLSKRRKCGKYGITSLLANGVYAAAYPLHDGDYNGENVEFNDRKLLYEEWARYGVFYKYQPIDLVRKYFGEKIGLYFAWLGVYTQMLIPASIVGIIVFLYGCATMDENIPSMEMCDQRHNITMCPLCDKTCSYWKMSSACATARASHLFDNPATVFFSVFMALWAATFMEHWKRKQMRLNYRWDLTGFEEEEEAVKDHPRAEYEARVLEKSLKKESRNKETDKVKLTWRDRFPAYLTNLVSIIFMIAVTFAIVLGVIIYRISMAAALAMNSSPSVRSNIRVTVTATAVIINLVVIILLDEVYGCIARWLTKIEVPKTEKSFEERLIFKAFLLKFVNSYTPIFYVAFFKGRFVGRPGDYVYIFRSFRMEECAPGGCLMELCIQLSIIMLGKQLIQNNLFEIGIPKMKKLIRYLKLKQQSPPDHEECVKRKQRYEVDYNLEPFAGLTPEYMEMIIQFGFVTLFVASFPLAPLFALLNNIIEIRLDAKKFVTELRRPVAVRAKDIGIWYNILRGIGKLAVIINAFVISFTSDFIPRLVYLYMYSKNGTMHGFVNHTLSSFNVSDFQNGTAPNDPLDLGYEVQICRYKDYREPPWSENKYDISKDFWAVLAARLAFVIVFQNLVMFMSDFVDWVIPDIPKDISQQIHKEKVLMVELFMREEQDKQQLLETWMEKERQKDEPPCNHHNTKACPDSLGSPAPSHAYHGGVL
Put plainly: Automated patch clamping (QPatch) assay to measure TMEM16A activity in whole-cell. Type of assay: cell-based. The settings on record: for pEC50: CHO cells expressing human TMEM16A (abc), whole-cell automated patch clamp, Hill fit, read-out: TMEM16A QPATCH assay EC50 V3 EC50; for Emax: CHO, maximum current at highest dose relative to reference potentiator at maximal concentration (upper limit) and vehicle (lower limit), read-out: TMEM16A QPATCH assay EC50 V3 Assay Window (% TMEM16A max activation). In short, it runs like this: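 CHO cells with doxycycline-induced (1 μg/mL, 18-24 h) human TMEM16A abc isoform; QPatch whole-cell recording, hold −70 mV, step +70 mV 1500 ms, then −90 to +70 mV ramp. Compounds in 0.3% DMSO; EC50 by Hill fit; % max activation relative to vehicle baseline and reference potentiator maximum.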
(In general: Patch clamp records ionic current or voltage across a cell membrane.)

pEC50: −log10 of the molar value.

Consider `CCOC(=O)[C@@H](NC(=O)c1cc(-c2cccc(-c3ncc(C(=O)NC(CC)CC)o3)c2)[nH]n1)C(C)C` [Example 3.52, (S)-Ethyl 3-Methyl-2-(5-(3-(5-(Pentan-3-Ylcarbamoyl)Oxazol-2-Yl)Phenyl)-1 H-Pyrazole-3-Carboxamido)Butanoate], for which the pEC50 is 7.52 and the Emax stood at 95%.

Consider `C[C@H](NC(=O)c1cc(-c2cccc(-c3ncc(C(=O)N[C@H](C)C4CC4)o3)c2)nn1CCO)C1CC1` [Example 10.2, N-((R)-1-Cyclopropylethyl)-2-(3-(5-(((S)-1-Cyclopropylethyl)Carbamoyl)-1-(2-Hydroxyethyl)-1H-Pyrazol-3-Yl)Phenyl)Oxazole-5-Carboxamide], for which the negative-log EC50 (pEC50) is 6.17 and the Emax was 108%.

Turning to `CCC(CC)NC(=O)c1cnc(-c2cccc(-c3cc(C(=O)N[C@@H](C)[C@H]4CCCO4)n[nH]3)c2)o1` (single isomer, unassigned) [3.0 (i)], the negative-log EC50 (pEC50) is 6.31 and the Emax amounted to 92%.

With `CCC(CC)NC(=O)c1cnc(-c2cccc(-c3cc(C(=O)NC(C)(C)C4CC4)n[nH]3)c2)o1` [Example 3.7, 2-(3-(3-((2-Cyclopropylpropan-2-Yl)Carbamoyl)-1H-Pyrazol-5-Yl)Phenyl)-N-(Pentan-3-Yl)Oxazole-5-Carboxamide], the pEC50 is 7.70 and the Emax is 118%.

On to `COC(=O)[C@@H](CSC)NC(=O)c1cnc(-c2cccc(-c3cc(C(=O)N[C@@H](C)C4CC4)n[nH]3)c2)o1` [Example 1.25, (S)-Methyl 2-(2-(3-(3-(((S)-1-Cyclopropylethyl)Carbamoyl)-1H-Pyrazol-5-yl)Phenyl)Oxazole-5-Carboxamido)-3-(Methylthio)Propanoate], for which the negative logarithm of the EC50 (pEC50) is 6.59 and the Emax was 83%.

Consider `CCC(CC)NC(=O)c1cc(-c2cccc(-c3ncc(C(=O)N[C@H](C(=O)OC(C)(C)C)c4ccccc4)o3)c2)[nH]n1` [Example 1.37, (S)-Tert-Butyl 2-(2-(3-(3-(Pentan-3-Ylcarbamoyl)-1H-Pyrazol-5-yl)Phenyl)Oxazole-5-Carboxamido)-2-Phenylacetate], for which the pEC50 is 6.70 and the Emax stood at 81%.

As to `CCOC(=O)[C@@H](NC(=O)c1cc(-c2cccc(-c3ncc(C(=O)NC(CC)CC)o3)c2)nn1CCO)C(C)C` [Example 5.0, (S)-ethyl 2-(1-(2-hydroxyethyl)-3-(3-(5-(pentan-3-ylcarbamoyl)oxazol-2-yl)phenyl)-1 H-pyrazole-5-carboxamido)-3-methylbutanoate], the pEC50 is 7.40 and the Emax is 110%.

Turning to `CCC(CC)NC(=O)c1cnc(-c2cccc(-c3nc(C(=O)NC(CC)CC)n(CCN(C)C)n3)c2)o1` [Example 15.4, 2-(3-(1-(2-(Dimethylamino)Ethyl)-5-(Pentan-3-Ylcarbamoyl)-1H-1,2,4-Triazol-3-Yl)Phenyl)-N-(Pentan-3-Yl)Oxazole-5-Carboxamide], the negative logarithm of the EC50 (pEC50) was 6.00 and the Emax came to 61%.

Consider `COC(=O)[C@@H](NC(=O)c1cnc(-c2cccc(-c3cc(C(=O)N[C@H](C)C4CC4)n[nH]3)c2)o1)C(C)C` [Example 1.5, (S)-Methyl 2-(2-(3-(3-(((R)-1-Cyclopropylethyl)Carbamoyl)-1H-Pyrazol-5-Yl)Phenyl)Oxazole-5-Carboxamido)-3-Methylbutanoate], for which the pEC50 is 7.22 and the Emax worked out at 98%.

As to `CCC(CC)NC(=O)c1cnc(-c2cccc(-c3cc(C(=O)N[C@@H](C)C4CC4)n(CCOC(C)C)n3)c2)o1` [Example 9.0, (S)-2-(3-(5-((1-Cyclopropylethyl)Carbamoyl)-1-(2-Isopropoxyethyl)-1 H-Pyrazol-3-Yl)Phenyl)-N-(Pentan-3-Yl)Oxazole-5-Carboxamide], the negative-log EC50 (pEC50) is 6.82 and the Emax was 137%.

In general, pEC50 refers to the EC50 on a negative log10 scale, so that one unit is a factor of ten.
